{
  "source": "ChEMBL document CHEMBL1201862",
  "about": "“PubChem BioAssay data set” (2004)",
  "assay_in_all_cases": "NCI tumour cell line growth inhibition, 48 h",
  "key": {"DU-145": {"test_system": "DU-145"}, "Malme-3M": {"test_system": "Malme-3M"}, "SK-MEL-2": {"test_system": "SK-MEL-2"}, "ACHN": {"test_system": "ACHN"}, "K562": {"test_system": "K562"}, "M14": {"test_system": "M14"}, "EKVX": {"test_system": "EKVX"}, "SNB-19": {"test_system": "SNB-19"}, "MOLT-4": {"test_system": "MOLT-4"}, "TK-10": {"test_system": "TK-10"}, "T47D": {"test_system": "T47D"}, "SF-539": {"test_system": "SF-539"}, "SK-MEL-28": {"test_system": "SK-MEL-28"}, "HL-60": {"test_system": "HL-60"}, "OVCAR-4": {"test_system": "OVCAR-4"}, "HCT-116": {"test_system": "HCT-116"}, "SK-MEL-5": {"test_system": "SK-MEL-5"}, "UO-31": {"test_system": "UO-31"}, "LOX IMVI": {"test_system": "LOX IMVI"}, "HOP-62": {"test_system": "HOP-62"}, "UACC-257": {"test_system": "UACC-257"}, "HOP-92": {"test_system": "HOP-92"}, "HCT-15": {"test_system": "HCT-15"}, "HT-29": {"test_system": "HT-29"}, "CAKI-1": {"test_system": "CAKI-1"}, "Hs-578T": {"test_system": "Hs-578T"}, "SW-620": {"test_system": "SW-620"}, "U-251": {"test_system": "U-251"}, "NCI-H23": {"test_system": "NCI-H23"}, "SK-OV-3": {"test_system": "SK-OV-3"}, "RPMI-8226": {"test_system": "RPMI-8226"}, "SR": {"test_system": "SR"}, "PC-3": {"test_system": "PC-3"}, "COLO 205": {"test_system": "COLO 205"}, "IGROV-1": {"test_system": "IGROV-1"}, "HCC 2998": {"test_system": "HCC 2998"}, "SF-295": {"test_system": "SF-295"}, "NCI/ADR-RES": {"test_system": "NCI/ADR-RES"}, "NCI-H522": {"test_system": "NCI-H522"}, "MCF7": {"test_system": "MCF7"}, "NCI-H460": {"test_system": "NCI-H460"}, "MDA-N": {"test_system": "MDA-N"}, "NCI-H226": {"test_system": "NCI-H226"}, "OVCAR-8": {"test_system": "OVCAR-8"}, "MDA-MB-231": {"test_system": "MDA-MB-231"}, "OVCAR-5": {"test_system": "OVCAR-5"}, "MDA-MB-435": {"test_system": "MDA-MB-435"}, "SN12C": {"test_system": "SN12C"}, "SF-268": {"test_system": "SF-268"}, "CCRF-CEM": {"test_system": "CCRF-CEM"}, "KM12": {"test_system": "KM12"}, "A549": {"test_system": "A549"}, "OVCAR-3": {"test_system": "OVCAR-3"}, "786-0": {"test_system": "786-0"}, "SNB-75": {"test_system": "SNB-75"}, "UACC-62": {"test_system": "UACC-62"}},
  "note": "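Where inhibition never reached the appropriate level, the endpoint shown equals the highest concentration tested. Otherwise, values were interpolated linearly from a five-concentration, 48-hour dose response in 96-well plates. GI50 = concentration required for 50% inhibition of growth.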 Active and inactive are the calls of the source. Cut-off read from the data, not from the text of the source: active = GI50 up to about 1.1 µM and inactive = higher.",
  "data": [
    {"smiles": "CCC1(O)CC(OC2CC(N(C)C)C(OC3CC(O)C(OC4CCC(=O)C(C)O4)C(C)O3)C(C)O2)c2c(O)c3c(c(O)c2C1C(=O)OC)C(=O)c1cccc(O)c1C3=O", "note": "(stereo unspecified)", "values": [
      {"measurement": "GI50", "setting": "DU-145", "value": "6.89 nM (active)"},
      {"measurement": "GI50", "setting": "Malme-3M", "value": "12.5 nM (active)"},
      {"measurement": "GI50", "setting": "SK-MEL-2", "value": "10.3 nM (active)"},
      {"measurement": "GI50", "setting": "ACHN", "value": "1.34 nM (active)"},
      {"measurement": "GI50", "setting": "K562", "value": "0.274 nM (active)"},
      {"measurement": "GI50", "setting": "M14", "value": "10 nM (active)"},
      {"measurement": "GI50", "setting": "EKVX", "value": "12 nM (active)"},
      {"measurement": "GI50", "setting": "SNB-19", "value": "4.57 nM (active)"},
      {"measurement": "GI50", "setting": "MOLT-4", "value": "1.54 nM (active)"},
      {"measurement": "GI50", "setting": "TK-10", "value": "15 nM (active)"},
      {"measurement": "GI50", "setting": "T47D", "value": "15.4 nM (active)"},
      {"measurement": "GI50", "setting": "SF-539", "value": "10.1 nM (active)"},
      {"measurement": "GI50", "setting": "SK-MEL-28", "value": "9.95 nM (active)"},
      {"measurement": "GI50", "setting": "HL-60", "value": "5.86 nM (active)"},
      {"measurement": "GI50", "setting": "OVCAR-4", "value": "10 nM (active)"},
      {"measurement": "GI50", "setting": "HCT-116", "value": "0.396 nM (active)"},
      {"measurement": "GI50", "setting": "SK-MEL-5", "value": "4.05 nM (active)"},
      {"measurement": "GI50", "setting": "UO-31", "value": "5.08 nM (active)"},
      {"measurement": "GI50", "setting": "LOX IMVI", "value": "1.84 nM (active)"},
      {"measurement": "GI50", "setting": "HOP-62", "value": "10.6 nM (active)"},
      {"measurement": "GI50", "setting": "UACC-257", "value": "5.9 nM (active)"},
      {"measurement": "GI50", "setting": "HOP-92", "value": "34.4 nM (active)"},
      {"measurement": "GI50", "setting": "HCT-15", "value": 7.19, "unit": "nM"},
      {"measurement": "GI50", "setting": "HT-29", "value": "4.45 nM (active)"},
      {"measurement": "GI50", "setting": "CAKI-1", "value": "0.267 nM (active)"},
      {"measurement": "GI50", "setting": "Hs-578T", "value": "2.21 nM (active)"},
      {"measurement": "GI50", "setting": "SW-620", "value": "1.71 nM (active)"},
      {"measurement": "GI50", "setting": "U-251", "value": "2.8 nM (active)"},
      {"measurement": "GI50", "setting": "NCI-H23", "value": "5.89 nM (active)"},
      {"measurement": "GI50", "setting": "SK-OV-3", "value": "5.65 nM (active)"},
      {"measurement": "GI50", "setting": "RPMI-8226", "value": "1.81 nM (active)"},
      {"measurement": "GI50", "setting": "SR", "value": "8.97 nM (active)"},
      {"measurement": "GI50", "setting": "PC-3", "value": "5.02 nM (active)"},
      {"measurement": "GI50", "setting": "COLO 205", "value": "3.27 nM (active)"},
      {"measurement": "GI50", "setting": "IGROV-1", "value": "1.78 nM (active)"},
      {"measurement": "GI50", "setting": "HCC 2998", "value": "17.2 nM (active)"},
      {"measurement": "GI50", "setting": "SF-295", "value": "2.19 nM (active)"},
      {"measurement": "GI50", "setting": "NCI/ADR-RES", "value": "10.9 nM (active)"},
      {"measurement": "GI50", "setting": "NCI-H522", "value": "3.85 nM (active)"},
      {"measurement": "GI50", "setting": "MCF7", "value": "10 nM (active)"},
      {"measurement": "GI50", "setting": "NCI-H460", "value": "0.434 nM (active)"},
      {"measurement": "GI50", "setting": "MDA-N", "value": "4.82 nM (active)"},
      {"measurement": "GI50", "setting": "NCI-H226", "value": "12.6 nM (active)"},
      {"measurement": "GI50", "setting": "OVCAR-8", "value": "1.74 nM (active)"},
      {"measurement": "GI50", "setting": "MDA-MB-231", "value": "18.1 nM (active)"},
      {"measurement": "GI50", "setting": "OVCAR-5", "value": "5.75 nM (active)"},
      {"measurement": "GI50", "setting": "MDA-MB-435", "value": "6.7 nM (active)"},
      {"measurement": "GI50", "setting": "SN12C", "value": "9.66 nM (active)"},
      {"measurement": "GI50", "setting": "SF-268", "value": "31.6 nM (active)"},
      {"measurement": "GI50", "setting": "CCRF-CEM", "value": "1.76 nM (active)"},
      {"measurement": "GI50", "setting": "KM12", "value": "3.44 nM (active)"},
      {"measurement": "GI50", "setting": "A549", "value": "3.39 nM (active)"},
      {"measurement": "GI50", "setting": "OVCAR-3", "value": "15.5 nM (active)"},
      {"measurement": "GI50", "setting": "786-0", "value": "1.6 nM (active)"},
      {"measurement": "GI50", "setting": "SNB-75", "value": "8.81 nM (active)"},
      {"measurement": "GI50", "setting": "UACC-62", "value": "10.1 nM (active)"}
    ]}
  ]
}
